This passage reports AC50 results from ChEMBL document CHEMBL5291721, “A preclinical secondary pharmacology resource illuminates target-adverse drug reaction associations of marketed drugs” (Nat Commun, 2023).

Test [1] deals with T1, Oxysterols receptor LXR-alpha (Homo sapiens, UniProt Q13133).
T1 sequence (Q13133 whole entry): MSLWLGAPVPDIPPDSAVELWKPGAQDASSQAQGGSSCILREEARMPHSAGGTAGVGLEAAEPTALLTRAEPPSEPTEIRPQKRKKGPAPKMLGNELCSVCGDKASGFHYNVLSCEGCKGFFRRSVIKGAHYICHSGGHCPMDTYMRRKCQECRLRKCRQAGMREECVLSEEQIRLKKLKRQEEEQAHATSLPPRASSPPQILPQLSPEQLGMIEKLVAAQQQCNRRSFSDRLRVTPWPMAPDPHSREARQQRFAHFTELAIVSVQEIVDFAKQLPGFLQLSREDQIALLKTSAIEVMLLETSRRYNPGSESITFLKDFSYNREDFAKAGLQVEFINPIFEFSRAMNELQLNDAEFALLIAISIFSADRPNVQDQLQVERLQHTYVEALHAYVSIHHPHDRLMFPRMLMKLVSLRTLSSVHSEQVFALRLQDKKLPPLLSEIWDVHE
It counts as functional.

Test [2] deals with T2, Oxysterols receptor LXR-beta (Homo sapiens, UniProt P55055).
T2 sequence (P55055 whole entry): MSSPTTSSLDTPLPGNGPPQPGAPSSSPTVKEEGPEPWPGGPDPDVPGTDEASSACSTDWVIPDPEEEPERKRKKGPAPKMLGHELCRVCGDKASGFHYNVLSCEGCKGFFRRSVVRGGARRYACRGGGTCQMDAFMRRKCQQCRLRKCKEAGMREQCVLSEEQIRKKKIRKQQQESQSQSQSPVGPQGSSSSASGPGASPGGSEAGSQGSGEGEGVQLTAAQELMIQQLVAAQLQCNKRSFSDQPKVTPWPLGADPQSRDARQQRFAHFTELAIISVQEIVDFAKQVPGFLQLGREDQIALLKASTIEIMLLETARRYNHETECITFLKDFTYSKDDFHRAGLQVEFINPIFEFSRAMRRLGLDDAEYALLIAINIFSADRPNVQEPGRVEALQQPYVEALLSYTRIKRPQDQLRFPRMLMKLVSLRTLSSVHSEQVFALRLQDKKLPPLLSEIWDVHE
It counts as functional.

Test [3] has as its target T3, Retinoic acid receptor gamma (Homo sapiens, UniProt P13631).
T3 sequence (P13631 whole entry): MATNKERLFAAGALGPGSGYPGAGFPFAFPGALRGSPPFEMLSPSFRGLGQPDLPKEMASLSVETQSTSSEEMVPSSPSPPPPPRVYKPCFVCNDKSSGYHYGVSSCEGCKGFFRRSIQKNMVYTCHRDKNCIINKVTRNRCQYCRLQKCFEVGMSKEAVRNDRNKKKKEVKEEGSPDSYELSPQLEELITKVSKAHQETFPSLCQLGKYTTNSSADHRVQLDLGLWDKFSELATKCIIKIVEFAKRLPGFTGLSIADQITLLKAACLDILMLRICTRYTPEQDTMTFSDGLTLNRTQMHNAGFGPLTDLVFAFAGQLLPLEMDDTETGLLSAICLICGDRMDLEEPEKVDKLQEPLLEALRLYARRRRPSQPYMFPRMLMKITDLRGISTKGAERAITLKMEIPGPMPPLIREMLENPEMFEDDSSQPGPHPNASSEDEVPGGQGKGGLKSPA
Format: functional, cell-based.

Test [4] deals with T4, Prostaglandin G/H synthase 1 (Rattus norvegicus, UniProt Q63921).
T4 sequence (Q63921 whole entry): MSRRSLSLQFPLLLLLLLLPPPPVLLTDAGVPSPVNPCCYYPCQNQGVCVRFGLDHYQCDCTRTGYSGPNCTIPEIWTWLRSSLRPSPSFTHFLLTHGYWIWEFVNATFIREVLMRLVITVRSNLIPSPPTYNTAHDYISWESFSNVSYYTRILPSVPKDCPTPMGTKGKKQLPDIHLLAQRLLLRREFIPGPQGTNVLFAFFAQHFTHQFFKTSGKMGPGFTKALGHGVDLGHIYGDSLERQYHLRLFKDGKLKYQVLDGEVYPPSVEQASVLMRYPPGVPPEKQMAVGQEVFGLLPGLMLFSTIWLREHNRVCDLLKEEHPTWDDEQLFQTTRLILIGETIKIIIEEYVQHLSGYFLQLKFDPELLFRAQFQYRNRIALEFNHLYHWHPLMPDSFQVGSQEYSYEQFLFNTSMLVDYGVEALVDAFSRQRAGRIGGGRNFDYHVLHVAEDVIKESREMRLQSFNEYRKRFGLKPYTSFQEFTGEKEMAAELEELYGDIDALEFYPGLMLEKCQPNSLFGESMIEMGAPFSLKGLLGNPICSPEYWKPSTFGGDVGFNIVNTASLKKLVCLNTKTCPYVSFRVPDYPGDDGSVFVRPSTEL
It counts as functional.

The target of test [5] is T5, Alpha-1A adrenergic receptor (Homo sapiens, UniProt P35348).
T5 sequence (P35348 whole entry): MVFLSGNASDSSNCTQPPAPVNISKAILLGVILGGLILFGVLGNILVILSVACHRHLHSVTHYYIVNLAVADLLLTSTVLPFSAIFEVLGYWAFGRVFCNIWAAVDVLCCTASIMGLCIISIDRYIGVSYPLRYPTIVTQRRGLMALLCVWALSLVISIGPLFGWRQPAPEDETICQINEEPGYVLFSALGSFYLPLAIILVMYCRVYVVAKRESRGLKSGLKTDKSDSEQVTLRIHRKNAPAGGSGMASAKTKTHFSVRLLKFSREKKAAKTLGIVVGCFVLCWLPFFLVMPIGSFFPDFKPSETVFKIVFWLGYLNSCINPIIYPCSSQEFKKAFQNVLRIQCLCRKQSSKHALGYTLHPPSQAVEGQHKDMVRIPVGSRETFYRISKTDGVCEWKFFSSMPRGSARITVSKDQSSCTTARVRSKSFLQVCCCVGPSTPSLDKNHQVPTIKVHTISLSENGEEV
Format: functional, cell-based.

Another test concerns the target T6, Thromboxane A2 receptor (Homo sapiens, UniProt P21731).
T6 sequence (P21731 whole entry): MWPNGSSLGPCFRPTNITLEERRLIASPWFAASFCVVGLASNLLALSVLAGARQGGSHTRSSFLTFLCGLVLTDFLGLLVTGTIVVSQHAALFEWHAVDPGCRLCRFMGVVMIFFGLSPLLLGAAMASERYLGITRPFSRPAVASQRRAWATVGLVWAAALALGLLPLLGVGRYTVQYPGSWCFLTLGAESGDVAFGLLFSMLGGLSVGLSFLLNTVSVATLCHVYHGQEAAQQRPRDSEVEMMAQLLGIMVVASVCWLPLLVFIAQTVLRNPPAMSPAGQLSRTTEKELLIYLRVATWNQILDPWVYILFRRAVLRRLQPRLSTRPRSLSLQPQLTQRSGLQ
It counts as functional.
Also: assay procedure not described here.

One may read the AC50 as the concentration at which the activity in the assay is half-maximal. With `CC(=O)N1CCN(c2ccc(OCC3COC(Cn4ccnc4)(c4ccc(Cl)cc4Cl)O3)cc2)CC1` (stereo unspecified) [KETOCONAZOLE], the results for the AC50 in test [1], in test [2] and in test [3] were > 30 µM, 4.7 µM and > 30 µM, respectively.
The compound `COc1ccc(C(Cl)=C(c2ccc(OC)cc2)c2ccc(OC)cc2)cc1` [CHLOROTRIANISENE] displayed an AC50 in test [4] of 0.0782 µM.
On to `N=C(N)NC(=O)Cc1c(Cl)cccc1Cl` [GUANFACINE], for which the concentration at half-maximal activity (AC50) in test [5] is 0.0093 µM; on Thromboxane A2 receptor it was > 30 µM.
